Measurements from publication PMC11845477, “Exploring the principles behind antibiotics with limited resistance” (Nature Communications, 2025).

Test system: P. aeruginosa ATCC BAA-3107 (SEN) and P. aeruginosa LESB58 (MDR)
Assay: Adaptive laboratory evolution (ALE), relative MIC of evolved lines
Type: cell-based, Pseudomonas aeruginosa
Source text: Using the same set of bacterial strains, we initiated adaptive laboratory evolution with the aim to maximize the level of antibiotic resistance in the populations achieved during a longer, but fixed time period.
An established protocol for adaptive laboratory evolution[46],[73] was followed to propagate populations with the highest resistance levels. Starting with an antibiotic concentration that caused approximately 50% growth inhibition, ten parallel populations for each antibiotic-ancestor strain combination were grown for 72 hours at 37 °C with continuous shaking (300 RPM). MHB broth medium was used unless stated otherwise. After each incubation, 20 µl of each culture was transferred to four new wells containing fresh medium with increasing antibiotic concentrations (0.5×, 1×, 1.5×, and 2.5× the previous concentration) in a chessboard layout to monitor potential cross-contamination. Growth was monitored by measuring OD600 using a Biotek Synergy 2 microplate reader, and only populations grown in the highest drug concentration with an OD600 > 0.2 were transferred further.
A robotic liquid handling system was used to automatically prepare a 11 to 16-step serial dilution in 384-well microtiter plates (Greiner). A final concentration of 5 × 10^5 bacterial cells per mL were inoculated into each well containing 60 µL MHB medium. Bacterial cultures were incubated at 37 °C with continuous shaking (Infors shaker, 900 rpm with 3 mm throw) for 18 hours (2 replicates from each). Cell growth was monitored by measuring the optical density (OD600 values, using Biotek Synergy microplate reader). MIC was defined as the antibiotic concentration of complete growth inhibition (i.e., OD600 < 0.05). Relative MIC was calculated as follows:1 relativeMIC=MICevolved/MICancestor […]
Supplementary Figure 4. Resistance levels following adaptive laboratory evolution across bacterial strains. The level of resistance was measured as the fold change in relative MIC between evolved and ancestral strains after ~60 days of adaptive laboratory evolution. Data are grouped by bacterial strain (A. baumannii (AB), E. coli (EC), K. pneumoniae (KP), and P. aeruginosa (PA)) and categorized as either multidrug-resistant (MDR) or sensitive (SEN). Each data point represents a laboratory evolved line, and boxplots show the median, first and third quartiles, with whiskers indicating the 5th and 95th percentiles.
Statistical analysis was performed using two-sided Dunn’s post-hoc test with Benjamini-Hochberg correction for multiple comparisons (****/ ***/ **/ * indicates p < 0.0001/ 0.001/ 0.01/ 0.05). For detailed information on antibiotic and bacterial species, see Supplementary Table 1. For mode of action groups, refer to Table 1. Source data are provided as a Source Data file.

[1] = PA-SEN (Pseudomonas aeruginosa ATCC BAA 3107), evolved line 2 adapted to the named antibiotic
[2] = PA-SEN (Pseudomonas aeruginosa ATCC BAA 3107), evolved line 4 adapted to the named antibiotic
[3] = PA-SEN (Pseudomonas aeruginosa ATCC BAA 3107), evolved line 10 adapted to the named antibiotic
[4] = PA-SEN, Pseudomonas aeruginosa ATCC BAA 3107, evolved line 1
[5] = PA-SEN, Pseudomonas aeruginosa ATCC BAA 3107, evolved line 1 versus ancestor
[6] = PA-SEN, Pseudomonas aeruginosa ATCC BAA 3107, evolved line 2
[7] = PA-SEN, Pseudomonas aeruginosa ATCC BAA 3107, evolved line 2 versus ancestor
[8] = PA-SEN, Pseudomonas aeruginosa ATCC BAA 3107, evolved line 3
[9] = PA-SEN, Pseudomonas aeruginosa ATCC BAA 3107, evolved line 3 versus ancestor
[10] = PA-SEN, Pseudomonas aeruginosa ATCC BAA 3107, evolved line 4
[11] = PA-SEN, Pseudomonas aeruginosa ATCC BAA 3107, evolved line 4 versus ancestor
[12] = PA-SEN, Pseudomonas aeruginosa ATCC BAA 3107, evolved line 5
[13] = PA-SEN, Pseudomonas aeruginosa ATCC BAA 3107, evolved line 5 versus ancestor
[14] = PA-SEN, Pseudomonas aeruginosa ATCC BAA 3107, evolved line 6
[15] = PA-SEN, Pseudomonas aeruginosa ATCC BAA 3107, evolved line 6 versus ancestor
[16] = PA-SEN, Pseudomonas aeruginosa ATCC BAA 3107, evolved line 7
[17] = PA-SEN, Pseudomonas aeruginosa ATCC BAA 3107, evolved line 7 versus ancestor
[18] = PA-SEN, Pseudomonas aeruginosa ATCC BAA 3107, evolved line 8
[19] = PA-SEN, Pseudomonas aeruginosa ATCC BAA 3107, evolved line 8 versus ancestor
[20] = PA-SEN, Pseudomonas aeruginosa ATCC BAA 3107, evolved line 9
[21] = PA-SEN, Pseudomonas aeruginosa ATCC BAA 3107, evolved line 9 versus ancestor
[22] = PA-SEN, Pseudomonas aeruginosa ATCC BAA 3107, evolved line 10
[23] = PA-SEN, Pseudomonas aeruginosa ATCC BAA 3107, evolved line 10 versus ancestor
[24] = PA-SEN (Pseudomonas aeruginosa ATCC BAA 3107), evolved line 1 adapted to the named antibiotic
[25] = PA-SEN (Pseudomonas aeruginosa ATCC BAA 3107), evolved line 6 adapted to the named antibiotic
[26] = PA-SEN (Pseudomonas aeruginosa ATCC BAA 3107), evolved line 9 adapted to the named antibiotic
[27] = PA-MDR (Pseudomonas aeruginosa LESB 58), evolved line 1
[28] = PA-MDR (Pseudomonas aeruginosa LESB 58), evolved line 6
[29] = PA-MDR, Pseudomonas aeruginosa LESB 58, evolved line 9
[30] = PA-MDR, Pseudomonas aeruginosa LESB 58, evolved line 10
[31] = PA-MDR, Pseudomonas aeruginosa LESB 58, evolved line 2
[32] = PA-MDR, Pseudomonas aeruginosa LESB 58, evolved line 3
[33] = PA-MDR, Pseudomonas aeruginosa LESB 58, evolved line 4
[34] = PA-MDR, Pseudomonas aeruginosa LESB 58, evolved line 5
[35] = PA-MDR, Pseudomonas aeruginosa LESB 58, evolved line 7
[36] = PA-MDR, Pseudomonas aeruginosa LESB 58, evolved line 8

SMILES: CN(C)[C@@H]1C(O)=C(C(N)=O)C(=O)[C@@]2(O)C(O)=C3C(=O)c4c(O)c(NC(=O)CN5CCCC5)cc(F)c4C[C@H]3C[C@@H]12 [Eravacycline]
- Relative MIC (log10) [1]: 1.505
- Relative MIC (log10) [2]: 1.505
- Relative MIC (log10) (PA-SEN (Pseudomonas aeruginosa ATCC BAA 3107), evolved line 5 adapted to the named antibiotic): 1.806
- Relative MIC (log10) (PA-SEN (Pseudomonas aeruginosa ATCC BAA 3107), evolved line 7 adapted to the named antibiotic): 1.204
- Relative MIC (log10) [3]: 1.505
- MIC of evolved line [4]: 128 µg/mL
- Relative MIC [5]: 32
- MIC of evolved line [6]: 128 µg/mL
- Relative MIC [7]: 32
- MIC of evolved line [8]: 256 µg/mL
- Relative MIC [9]: 64
- MIC of evolved line [10]: 128 µg/mL
- Relative MIC [11]: 32
- MIC of evolved line [12]: 256 µg/mL
- Relative MIC [13]: 64
- MIC of evolved line [14]: 128 µg/mL
- Relative MIC [15]: 32
- MIC of evolved line [16]: 64 µg/mL
- Relative MIC [17]: 16
- MIC of evolved line [18]: 64 µg/mL
- Relative MIC [19]: 16
- MIC of evolved line [20]: 64 µg/mL
- Relative MIC [21]: 16
- MIC of evolved line [22]: 128 µg/mL
- Relative MIC [23]: 32
- Relative MIC (Pseudomonas aeruginosa ATCC BAA 3107 (PA-SEN), evolved line 1): 32
- Relative MIC (Pseudomonas aeruginosa ATCC BAA 3107 (PA-SEN), evolved line 2): 32
- Relative MIC (Pseudomonas aeruginosa ATCC BAA 3107 (PA-SEN), evolved line 3): 64
- Relative MIC (Pseudomonas aeruginosa ATCC BAA 3107 (PA-SEN), evolved line 4): 32
- Relative MIC (Pseudomonas aeruginosa ATCC BAA 3107 (PA-SEN), evolved line 5): 64
- Relative MIC (Pseudomonas aeruginosa ATCC BAA 3107 (PA-SEN), evolved line 6): 32
- Relative MIC (Pseudomonas aeruginosa ATCC BAA 3107 (PA-SEN), evolved line 7): 16
- Relative MIC (Pseudomonas aeruginosa ATCC BAA 3107 (PA-SEN), evolved line 8): 16
- Relative MIC (Pseudomonas aeruginosa ATCC BAA 3107 (PA-SEN), evolved line 9): 16
- Relative MIC (Pseudomonas aeruginosa ATCC BAA 3107 (PA-SEN), evolved line 10): 32

SMILES: CNC(C)C1CCC(N)C(OC2C(N)CC(N)C(OC3OCC(C)(O)C(NC)C3O)C2O)O1 (stereo not shown) [Gentamicin]
- Relative MIC (log10) [24]: 2.107
- Relative MIC (log10) [1]: 1.806
- Relative MIC (log10) [25]: 1.806
- Relative MIC (log10) [26]: 2.107
- Relative MIC (log10) [3]: 2.408
- MIC of evolved line [4]: 128 µg/mL
- Relative MIC [4]: 128
- Relative MIC [5]: 128
- MIC of evolved line [6]: 64 µg/mL
- Relative MIC [6]: 64
- Relative MIC [7]: 64
- MIC of evolved line [10]: 128 µg/mL
- Relative MIC [10]: 128
- Relative MIC [11]: 128
- MIC of evolved line [14]: 64 µg/mL
- Relative MIC [14]: 64
- Relative MIC [15]: 64
- MIC of evolved line [18]: 256 µg/mL
- Relative MIC [18]: 256
- Relative MIC [19]: 256
- MIC of evolved line [20]: 128 µg/mL
- Relative MIC [20]: 128
- Relative MIC [21]: 128
- MIC of evolved line [22]: 256 µg/mL
- Relative MIC [22]: 256
- Relative MIC [23]: 256

SMILES: O=c1ccc2ncc(=O)n3c2n1C[C@H]3CN1CCC(NCc2cc3c(cn2)OCCC3)CC1 [Gepotidacin]
- MIC of evolved line [27]: 128 µg/mL
- Relative MIC [27]: 32
- Relative MIC (log10) (PA-MDR (Pseudomonas aeruginosa LESB 58), evolved line 1 adapted to the named antibiotic): 1.505
- Relative MIC (log10) (PA-MDR (Pseudomonas aeruginosa LESB 58), evolved line 2 adapted to the named antibiotic): 1.505
- Relative MIC (log10) (PA-MDR (Pseudomonas aeruginosa LESB 58), evolved line 5 adapted to the named antibiotic): 1.505
- MIC of evolved line [28]: 128 µg/mL
- Relative MIC [28]: 32
- Relative MIC (log10) (PA-MDR (Pseudomonas aeruginosa LESB 58), evolved line 7 adapted to the named antibiotic): 1.505
- Relative MIC (log10) (PA-MDR (Pseudomonas aeruginosa LESB 58), evolved line 8 adapted to the named antibiotic): 1.505
- Relative MIC (PA-MDR, Pseudomonas aeruginosa LESB 58, evolved line 1 versus ancestor): 32
- Relative MIC (PA-MDR, Pseudomonas aeruginosa LESB 58, evolved line 2 versus ancestor): 32
- Relative MIC (PA-MDR, Pseudomonas aeruginosa LESB 58, evolved line 3 versus ancestor): 32
- Relative MIC (PA-MDR, Pseudomonas aeruginosa LESB 58, evolved line 4 versus ancestor): 32
- Relative MIC (PA-MDR, Pseudomonas aeruginosa LESB 58, evolved line 5 versus ancestor): 32
- Relative MIC (PA-MDR, Pseudomonas aeruginosa LESB 58, evolved line 6 versus ancestor): 32
- Relative MIC (PA-MDR, Pseudomonas aeruginosa LESB 58, evolved line 7 versus ancestor): 32
- Relative MIC (PA-MDR, Pseudomonas aeruginosa LESB 58, evolved line 8 versus ancestor): 32
- MIC of evolved line [29]: 64 µg/mL
- Relative MIC [29]: 16
- Relative MIC (PA-MDR, Pseudomonas aeruginosa LESB 58, evolved line 9 versus ancestor): 16
- MIC of evolved line [30]: 128 µg/mL
- Relative MIC [30]: 32
- Relative MIC (PA-MDR, Pseudomonas aeruginosa LESB 58, evolved line 10 versus ancestor): 32
- MIC of evolved line [31]: 128 µg/mL
- Relative MIC [31]: 32
- MIC of evolved line [32]: 128 µg/mL
- Relative MIC [32]: 32
- MIC of evolved line [33]: 128 µg/mL
- Relative MIC [33]: 32
- MIC of evolved line [34]: 128 µg/mL
- Relative MIC [34]: 32
- MIC of evolved line [35]: 128 µg/mL
- Relative MIC [35]: 32
- MIC of evolved line [36]: 128 µg/mL
- Relative MIC [36]: 32
- Relative MIC (log10) [24]: 1.806
- Relative MIC (log10) [2]: 1.806
- Relative MIC (log10) [25]: 1.806
- Relative MIC (log10) [26]: 1.806
- Relative MIC (log10) [3]: 1.806
- MIC of evolved line [4]: 256 µg/mL
- Relative MIC [4]: 64
- Relative MIC [5]: 64
- MIC of evolved line [6]: 256 µg/mL
- Relative MIC [6]: 64
- Relative MIC [7]: 64
- MIC of evolved line [8]: 128 µg/mL
- Relative MIC [8]: 32
- Relative MIC [9]: 32
- MIC of evolved line [10]: 256 µg/mL
- Relative MIC [10]: 64
- Relative MIC [11]: 64
- MIC of evolved line [12]: 128 µg/mL
- Relative MIC [12]: 32
- Relative MIC [13]: 32
- MIC of evolved line [14]: 256 µg/mL
- Relative MIC [14]: 64
- Relative MIC [15]: 64
- MIC of evolved line [16]: 256 µg/mL
- Relative MIC [16]: 64
- Relative MIC [17]: 64
- MIC of evolved line [18]: 128 µg/mL
- Relative MIC [18]: 32
- Relative MIC [19]: 32
- MIC of evolved line [20]: 256 µg/mL
- Relative MIC [20]: 64
- Relative MIC [21]: 64
- MIC of evolved line [22]: 256 µg/mL
- Relative MIC [22]: 64
- Relative MIC [23]: 64

SMILES: C[C@@H](O)[C@H]1C(=O)N2C(C(=O)O)=C(S[C@@H]3CN[C@H](C(=O)N(C)C)C3)[C@H](C)[C@H]12 [Meropenem]
- MIC of evolved line [29]: 256 µg/mL
- MIC of evolved line [30]: 32 µg/mL
- MIC of evolved line [4]: 16 µg/mL
- MIC of evolved line [6]: 64 µg/mL
- MIC of evolved line [10]: 64 µg/mL
- MIC of evolved line [14]: 64 µg/mL
- MIC of evolved line [18]: 32 µg/mL
- MIC of evolved line [22]: 64 µg/mL
